Test results from US7718360B2, “Composition (RCUD) for protecting and/or repairing DNA from oxidative damages and a method thereof” (Council of Scientific & Industrial Research, priority 2003, dated 2010).
Numbered stars: 1 amine (or outer) side, 2 acyl side, 3 side chain; on linkers, the order of the positions; unused ones are H or OH. Bridge positions count the residues as written; N and C are the ends. Square brackets hold non-standard residues; d marks the D form. Peptide text beside a SMILES is read from it. I, II: the chains in the order shown. Actinocin(9to1) = Cc1c2oc3c(C)ccc(C(=O)[*:1])c3nc-2c(C(=O)[*:2])c(N)c1=O; NMeV = CN[C@H](C(=O)O)C(C)C; Sar = CNCC(=O)O

Experiments:
Assay type in all cases: cell-based
[1] = system: polymorphonuclear leucocytes; experiment: DNA damage induced by manganese dioxide (MnO2) and protection by redistilled cow's urine distillate; conditions: Table 4; MnO2 20 μl alone (positive control)
Experimental: (§1) To 5 ml of whole blood 15 ml of solution A is added, mixed well and kept between 2 and 4° C. for 30 minutes. The mixture was centrifuged at 800×g for 10 minutes. The supernatant is discarded, the pellet was washed with balanced salt solution and washing is discarded after centrifugation at 800×g for 10 minutes. This step was done twice. The pellet comprises of peripheral polymorphonuclear leukocytes (PMNs) which are suspended in predetermined amount of solution B.
(§2) The volume in each tube was made up to 2 ml by adding BSS solution. The mixture is incubated at 37° C. for 1 hr in 5% CO2 incubator with 95% humidity. After incubation, 5 ml of ice cold 0.9% NaCl was added in each tube, centrifuged at 800 g for 10 minutes and the supernatant is discarded. To the pellet in each tube 1.5 ml of solution B was added. The tubes (control and three experimental) are mixed thoroughly and the mixture was equally distributed in the volume of 0.2 ml in 3 tubes designated as B, P and T, then 200 μl of solution C was added. The three tubes B, P & T, were kept in cold (0° C.) for 10 minutes after mixing well in order to lyse the cells. To tube T 400 μl of solution E was added. Thereafter, 200 μl of solution D was added to all the tubes B, P and T. The tubes were kept at 0° C. for 30 minutes. Thereafter, contents of the B tube was sonicated for 30 second three times. B, P and T were further incubated at 20° C. for 1 hr. To B and P tubes 400 μl of solution E was added and the tubes were incubated at 0° C. for 10 minutes. 1.5 ml of solution F are added to all the tubes, homogenized on a vortex shaker and subjected to fluorescence spectrophotometric analyses within 15 minutes with 520 nm excitation and at 590 nm emission. The percentage of double stranded DNA remaining was determined using the following formula. [Krishnamurthi et al. (2003) & Bimboim & Jevcak (1981)].
(§3) [formula] • Where P, B and T are the fluorescence emissions at 590 nm.
(§4) One ml of PMNs suspended in solution B containing around 1×10^6 cells were taken in four tubes A, B, C and D. To tube B, 60 μl of redistilled cow urine distillate (RCUD) was added and incubated at 37° C. for 10 minutes.
(§5) To tube A only 60 μl of RCUD was added; the volume was made up with BSS. The mixture was incubated at 37° C. for 1 hr in 5% CO2 incubator with 95% humidity. The rest of the protocol was followed as described under C and D.

[2] = system: polymorphonuclear leucocytes; experiment: DNA damage induced by hydrogen peroxide (H2O2) and protection by redistilled cow's urine distillate
Experimental: as §1
as §2, with “formula.” for “formula. [Krishnamurthi et al. (2003) & Bimboim & Jevcak (1981)].”
as §3, §4, §5

[3] = system: polymorphonuclear leucocytes; experiment: DNA damage induced by actinomycin D and protection by redistilled cow's urine distillate; conditions: Table 2; Actinomycin D alone (positive control)
Experimental: as §1, §2, §3, §4, §5

[4] = Table 3, H2O2 alone (positive control)
[5] = Table 5, H2O2 10 μl alone (positive control)
[6] = Table 6, H2O2 10 μl alone (positive control)

[O]=[Mn]=[O] [Manganese dioxide (MnO2), Manganese dioxide]
Mean, percentage of double stranded DNA remaining [1]: 21 percentage
Set I, percentage of double stranded DNA remaining [1]: 22 percentage
Set II, percentage of double stranded DNA remaining [1]: 30 percentage
Set III, percentage of double stranded DNA remaining [1]: 22 percentage
Set IV, percentage of double stranded DNA remaining [1]: 15 percentage
Set V, percentage of double stranded DNA remaining [1]: 16 percentage

OO [Hydrogen Peroxide (H2O2), Hydrogen Peroxide]
Mean, percentage of double stranded DNA remaining [2, 4]: 31 percentage
Set I, percentage of double stranded DNA remaining [2, 4]: 20 percentage
Set II, percentage of double stranded DNA remaining [2, 4]: 29 percentage
Set III, percentage of double stranded DNA remaining [2, 4]: 24 percentage
Set IV, percentage of double stranded DNA remaining [2, 4]: 43 percentage
Set V, percentage of double stranded DNA remaining [2, 4]: 38 percentage
Mean, percentage of double stranded DNA remaining [2, 5]: 26 percentage
Set I, percentage of double stranded DNA remaining [2, 5]: 24 percentage
Set II, percentage of double stranded DNA remaining [2, 5]: 24 percentage
Set III, percentage of double stranded DNA remaining [2, 5]: 24 percentage
Set IV, percentage of double stranded DNA remaining [2, 5]: 33 percentage
Set V, percentage of double stranded DNA remaining [2, 5]: 24 percentage
Mean, percentage of double stranded DNA remaining [2, 6]: 26 percentage
Set I, percentage of double stranded DNA remaining [2, 6]: 24 percentage
Set II, percentage of double stranded DNA remaining [2, 6]: 24 percentage
Set III, percentage of double stranded DNA remaining [2, 6]: 24 percentage
Set IV, percentage of double stranded DNA remaining [2, 6]: 33 percentage
Set V, percentage of double stranded DNA remaining [2, 6]: 24 percentage

Cc1c2oc3c(C)ccc(C(=O)N[C@@H]4C(=O)N[C@H](C(C)C)C(=O)N5CCC[C@H]5C(=O)N(C)CC(=O)N(C)[C@@H](C(C)C)C(=O)O[C@@H]4C)c3nc-2c(C(=O)N[C@@H]2C(=O)N[C@H](C(C)C)C(=O)N3CCC[C@H]3C(=O)N(C)CC(=O)N(C)[C@@H](C(C)C)C(=O)O[C@@H]2C)c(N)c1=O [Actinomycin D] (I: T[dV]P[Sar][NMeV] / II: T[dV]P[Sar][NMeV]; ester I:1-I:C, II:1-II:C; linker I:N-II:N via Actinocin(9to1))
Mean, percentage of double stranded DNA remaining [3]: 38 percentage
Set I, percentage of double stranded DNA remaining [3]: 40 percentage
Set II, percentage of double stranded DNA remaining [3]: 38 percentage
Set III, percentage of double stranded DNA remaining [3]: 44 percentage
Set IV, percentage of double stranded DNA remaining [3]: 28 percentage
Set V, percentage of double stranded DNA remaining [3]: 39 percentage
